Laboratory results taken from patent publication US10251395B2, “Substituted furano-/thienocycloalkylamino-2-pyrimidine derivatives and use thereof for controlling undesired plant growth” (Bayer CropScience Aktiengesellschaft, priority 2015, dated 2019).

Columns and labels:
Assay type in all cases: in vivo
Echinochloa crus-galli [1] = test: Pre-emergence herbicidal effect; details: scored visually after 3 weeks
Method in brief: (§1)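 Seeds sown in sandy loam and covered with soil; WP or EC formulations sprayed onto the soil surface as aqueous suspension/emulsion at 600 to 800 L/ha water with 0.2% wetting agent. Greenhouse-grown; damage scored visually after 3 weeks against untreated controls (100% = plants dead, 0% = like control).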

Amaranthus retroflexus [2] = test: Pre-emergence herbicidal effect; details: scored visually after 3 weeks
Method in brief: as §1

Stellaria media [3] = test: Pre-emergence herbicidal effect; details: scored visually after 3 weeks
Method in brief: as §1

Abutilon theophrasti [4] = test: Pre-emergence herbicidal effect; details: scored visually after 3 weeks
Method in brief: as §1

Setaria viridis [5] = test: Pre-emergence herbicidal effect; details: scored visually after 3 weeks
Method in brief: as §1

Viola tricolor [6] = test: Pre-emergence herbicidal effect; details: scored visually after 3 weeks
Method in brief: as §1

Matricaria inodora [7] = test: Pre-emergence herbicidal effect; details: scored visually after 3 weeks
Method in brief: as §1

Polygonum convolvulus = test: Pre-emergence herbicidal effect; details: scored visually after 3 weeks
Method in brief: as §1

Veronica persica [8] = test: Pre-emergence herbicidal effect; details: scored visually after 3 weeks
Method in brief: as §1

Alopecurus myosuroides = test: Pre-emergence herbicidal effect; details: Dosage 320 g/ha, scored visually after 3 weeks
Method in brief: as §1

Echinochloa crus-galli [9] = test: Post-emergence herbicidal effect; details: 320 g/ha, assessed visually after about 3 weeks vs untreated controls
Method in brief: (§2)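 Greenhouse post-emergence spray: one-leaf seedlings, sandy loam, aqueous WP/EC formulation with 0.2% wetting agent at 600–800 L/ha. Visual assessment after ~3 weeks, as % activity relative to untreated controls.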

Amaranthus retroflexus [10] = test: Post-emergence herbicidal effect; details: assessed visually after about 3 weeks vs untreated controls
Method in brief: as §2

Stellaria media [11] = test: Post-emergence herbicidal effect; details: assessed visually after about 3 weeks vs untreated controls
Method in brief: as §2

Abutilon theophrasti [12] = test: Post-emergence herbicidal effect; details: assessed visually after about 3 weeks vs untreated controls
Method in brief: as §2

Viola tricolor [13] = test: Post-emergence herbicidal effect; details: assessed visually after about 3 weeks vs untreated controls
Method in brief: as §2

Veronica persica [14] = test: Post-emergence herbicidal effect; details: assessed visually after about 3 weeks vs untreated controls
Method in brief: as §2

Ipomoea purpurea = test: Post-emergence herbicidal effect; details: 320 g/ha, assessed visually after about 3 weeks vs untreated controls
Method in brief: as §2

Setaria viridis [15] = test: Post-emergence herbicidal effect; details: 320 g/ha, assessed visually after about 3 weeks vs untreated controls
Method in brief: as §2

Matricaria inodora [16] = test: Post-emergence herbicidal effect; details: assessed visually after about 3 weeks vs untreated controls
Method in brief: as §2

Lolium multiflorum = test: Pre-emergence herbicidal effect; details: Dosage 320 g/ha, scored visually after 3 weeks
Method in brief: as §1

SMILES | ECHCG pre-emergence efficacy (herbicidal activity) (Echinochloa crus-galli [1]; Dosage 80 g/ha) [%] | ECHCG pre-emergence efficacy (herbicidal activity) (Echinochloa crus-galli [1]; Dosage 320 g/ha) [%] | AMARE pre-emergence efficacy (herbicidal activity) (Amaranthus retroflexus [2]; Dosage 80 g/ha) [%] | AMARE pre-emergence efficacy (herbicidal activity) (Amaranthus retroflexus [2]; Dosage 320 g/ha) [%] | STEME pre-emergence efficacy (herbicidal activity) (Stellaria media [3]; Dosage 80 g/ha) [%] | STEME pre-emergence efficacy (herbicidal activity) (Stellaria media [3]; Dosage 320 g/ha) [%] | SETVI pre-emergence efficacy (herbicidal activity) (Setaria viridis [5]; Dosage 80 g/ha) [%] | SETVI pre-emergence efficacy (herbicidal activity) (Setaria viridis [5]; Dosage 320 g/ha) [%] | VIOTR pre-emergence efficacy (herbicidal activity) (Viola tricolor [6]; Dosage 80 g/ha) [%] | VIOTR pre-emergence efficacy (herbicidal activity) (Viola tricolor [6]; Dosage 320 g/ha) [%] | MATIN pre-emergence efficacy (herbicidal activity) (Matricaria inodora [7]; Dosage 80 g/ha) [%] | MATIN pre-emergence efficacy (herbicidal activity) (Matricaria inodora [7]; Dosage 320 g/ha) [%] | POLCO pre-emergence efficacy (herbicidal activity) (Polygonum convolvulus; Dosage 80 g/ha) [%] | POLCO pre-emergence efficacy (herbicidal activity) (Polygonum convolvulus; Dosage 320 g/ha) [%] | VERPE pre-emergence efficacy (herbicidal activity) (Veronica persica [8]; Dosage 80 g/ha) [%] | VERPE pre-emergence efficacy (herbicidal activity) (Veronica persica [8]; Dosage 320 g/ha) [%] | post-emergence efficacy AMARE (Amaranthus retroflexus [10]; 320 g/ha) [%] | post-emergence efficacy ABUTH (Abutilon theophrasti [12]; 320 g/ha) [%] | post-emergence efficacy VIOTR (Viola tricolor [13]; 320 g/ha) [%] | post-emergence efficacy VERPE (Veronica persica [14]; 320 g/ha) [%] | further results
Cc1cc2c(s1)C(Nc1ncc3c(n1)CCCC3=O)CCC2 (racemic) [compound 8] | 90 | 100 | 100 | 100 | 80 | 100 | 90 | 100 | 100 | 100 | 100 | 100 | 100 | 100 | 100 | 100 | 90 | 80 | 90 | 90 | ABUTH pre-emergence efficacy (herbicidal activity) (Abutilon theophrasti [4]; Dosage 320 g/ha): 100%; ALOMY pre-emergence efficacy (herbicidal activity) (Alopecurus myosuroides): 80%; post-emergence efficacy ECHCG (Echinochloa crus-galli [9]): 100%; post-emergence efficacy STEME (Stellaria media [11]; 80 g/ha): 80%; post-emergence efficacy STEME (Stellaria media [11]; 320 g/ha): 90%
Cc1cc2c(s1)CCCC2Nc1nc(N)c(S(C)(=O)=O)c(Cl)n1 (racemic) [compound 16] | 100 | 100 | 90 | 100 | 100 | 100 | 20 | 100 | 100 | 100 | 100 | 100 | 20 | 40 | 100 | 100 | 90 | 90 | 90 | 80 | ABUTH pre-emergence efficacy (herbicidal activity) (Abutilon theophrasti [4]; Dosage 80 g/ha): 40%; ABUTH pre-emergence efficacy (herbicidal activity) (Abutilon theophrasti [4]; Dosage 320 g/ha): 40%; post-emergence efficacy ECHCG (Echinochloa crus-galli [9]): 100%; post-emergence efficacy STEME (Stellaria media [11]; 320 g/ha): 90%
Cc1cc2c(s1)CCCC2Nc1nc(N)c([S+](C)[O-])c(Cl)n1 (racemic) [compound 39] | 80 | 100 |  | 100 | 100 | 100 | 100 | 100 | 100 | 100 | 100 | 100 | 80 | 90 |  | 100 |  |  | 80 |  | ABUTH pre-emergence efficacy (herbicidal activity) (Abutilon theophrasti [4]; Dosage 320 g/ha): 80%; post-emergence efficacy PHBPU (Ipomoea purpurea): 80%; post-emergence efficacy VIOTR (Viola tricolor [13]; 80 g/ha): 80%
Cc1cc2c(s1)CCCC2Nc1ncc(C(N)=O)c(N)n1 (racemic) [compound 267] |  | 90 | 100 | 100 | 100 | 100 | 80 | 80 | 90 | 100 |  |  |  |  | 100 | 100 | 80 | 80 | 90 | 80 | ALOMY pre-emergence efficacy (herbicidal activity) (Alopecurus myosuroides): 80%; post-emergence efficacy AMARE (Amaranthus retroflexus [10]; 80 g/ha): 80%; post-emergence efficacy STEME (Stellaria media [11]; 80 g/ha): 80%; post-emergence efficacy STEME (Stellaria media [11]; 320 g/ha): 100%; post-emergence efficacy ABUTH (Abutilon theophrasti [12]; 80 g/ha): 80%; post-emergence efficacy SETVI (Setaria viridis [15]): 60%; post-emergence efficacy PHBPU (Ipomoea purpurea): 80%; post-emergence efficacy VIOTR (Viola tricolor [13]; 80 g/ha): 80%; post-emergence efficacy MATIN (Matricaria inodora [16]; 80 g/ha): 80%; post-emergence efficacy MATIN (Matricaria inodora [16]; 320 g/ha): 80%; post-emergence efficacy VERPE (Veronica persica [14]; 80 g/ha): 80%
Cc1cc2c(s1)CCCC2Nc1ncc(-c2cncc(C(F)(F)F)c2)c(N)n1 (racemic) [compound 290] |  | 100 |  | 100 | 100 | 100 | 60 | 100 | 100 | 100 | 90 | 100 | 50 | 80 | 100 | 100 | 80 | 60 | 90 | 100 | LOLMU pre-emergence efficacy (herbicidal activity) (Lolium multiflorum): 100%; ALOMY pre-emergence efficacy (herbicidal activity) (Alopecurus myosuroides): 80%; post-emergence efficacy AMARE (Amaranthus retroflexus [10]; 80 g/ha): 80%; post-emergence efficacy ABUTH (Abutilon theophrasti [12]; 80 g/ha): 60%; post-emergence efficacy SETVI (Setaria viridis [15]): 60%; post-emergence efficacy VIOTR (Viola tricolor [13]; 80 g/ha): 60%; post-emergence efficacy MATIN (Matricaria inodora [16]; 80 g/ha): 80%; post-emergence efficacy MATIN (Matricaria inodora [16]; 320 g/ha): 90%
